The test system of series [1] is HepG2/C3A cells. Briefly: APOPTAG (TUNEL) apoptosis assay, HepG2/C3A cells on glass coverslips. Format: cell-based, human. Conditions: 1 μM, 24-hour incubation, compared to untreated controls. From the text: (§1) In contrast to annexin V labeling, the APOPTAG™ kit (Intergen Co., MA) uses terminal deoxynucleotidyl transferase to label free 3′-OH DNA termini exposed during apoptotic DNA degradation and visualization using immunofluorescence (Li, X., Traganos, F., Melamed, M. R., and Darzynkiewicz, Z. (1995). Single-step procedure for labeling DNA strand breaks with flourescein- or BODIPY-conjugated deoxynucleotides: detection of apoptosis and bromodeoxyuridine incorporation. Cytometry 20, 172-180). Although this method is highly specific for apoptosis, the procedure cannot be done on-chip due to the fixation and incubation steps. Briefly, microscale chips were run under specified experimental conditions, the cell chips were removed from their housing units, fixed in 1% paraformaldehyde and processed with the APOPTAG™ kit using the manufacturer's protocol.
(§2) Two different assays to detect apoptosis were investigated. The first assay was the immunofluorescence-based terminal deoxynucleotidyl transferase […] nick end labeling (TUNEL) technique available in kit form as APOPTAG™ (Intergen Co., MA) (see Methods section). The assay was first optimized using cells grown on glass coverslips. Briefly, HepG2/C3A cells were seeded onto poly-D-lysine treated glass coverslips and treated with and without staurosporine. Coverslips were processed as described (see Methods section).

Series [2] concerns HCT116 cells. Briefly: APOPTAG (TUNEL) apoptosis assay on microscale chip (HepG2/C3A liver, HCT116 target tissues). Conditions: 1 μM, 24 hour exposure, compared to untreated controls. The class given is cell-based, human.
From the text: as §1, §2

The test system of series [3] is HepG2/C3A cells in the liver compartment and HCT116 cells in the target tissues compartment. Kind of series: Annexin V-FITC apoptosis assay on microscale chip system. Format: cell-based, human. Conditions: 1 μM, 6-hour treatment, compared to untreated control cell chips.
Description: With the microscale chip, annexin V-FITC labeling was visualized directly on-chip, by first flushing the system with PBS, then recirculating annexin V-FITC (10 μg/ml in annexin V binding buffer, Clontech) for 30 min. Cells were then visualized directly using a FITC filter set.
Briefly, the microscale chip cell chips were seeded with HepG2/C3A cells in the liver compartment and HCT116 cells in the target tissues compartment. Cell chips were loaded onto the microscale chip system and treated with and without 1 μM staurosporine as described above. After a 6-hour incubation, the re-circulating medium was switched to PBS containing Annexin V-FITC and Hoechst 33342 and allowed to flow through the system for 30 minutes. Cell chips were removed from the acrylic housing and visualized under a fluorescent microscope. Cells were visualized under a fluorescent microscope and fluorescent images of identical fields were obtained using the appropriate filter sets.
In series [4] the test system is HepG2/C3A cells. Briefly: LIVE/DEAD assay, HepG2/C3A cells on poly-D-lysine treated glass coverslips. The class given is cell-based, human. Conditions: 1 μM, 24 hours. The text has this:
(§3) LIVE/DEAD stain is a two-component stain consisting of calcein AM and ethidium homodimer. Living cells actively hydrolyze the acetoxymethyl ester (AM) moiety of calcein AM to produce bright green fluorescence of calcein. In contrast, cells that have compromised membrane integrity allow the normally membrane impermeant ethidium homodimer to stain the nucleus of dead or dying cells fluorescent red. The cell permeant nuclear stain, Hoechst 33342 acts as a general stain for all cells. Together with the appropriate filter sets, living cells fluoresce green, dying or dead cells red, and all cells are quantified by a blue nuclear fluorescence. For experiments described herein, trypan blue was used at 0.2% (w/v), calcein AM at 1:20,000, propidium iodide at 1:5,000, and Hoechst 33342 at 10 μg/ml. Cells were visualized with a M2Bio stereofluorescence microscope (Zeiss). All experiments were repeated at least three times and measurements done in triplicate.
The LIVE/DEAD assay was optimized (see Methods section) using cells grown on glass coverslips. Briefly, HepG2/C3A cells were seeded onto poly-D-lysine treated glass coverslips and treated with and without 1 μM staurosporine for 24 hours. […]

For series [5], the system named is HCT116 cells. Kind of series: LIVE/DEAD cytotoxicity assay on the microscale chip system (HepG2/C3A liver, HCT116 target tissues). The class given is cell-based, human. Conditions: 1 μM, 24 hour treatment, compared to untreated control cell chips.
From the text: as §3
Two different assays to detect apoptosis were investigated. The first assay was the immunofluorescence-based terminal deoxynucleotidyl transferase BrdU nick end labeling (TUNEL) technique available in kit form as APOPTAG™ (Intergen Co., MA) (see Methods section).

For series [6], the system named is HT29 human colon cancer cells. Kind of series: Microscale chip, HepG2-C3A cells in liver compartment and HT29 cells in target tissue compartment, LIVE/DEAD staining. Conditions: 24 hours; for efficacy against HT-29 colon cancer cells on chip: HepG2-C3A cells in liver compartment, HT-29 cells with mutant p53. The class given is cell-based.
From the text: as §3

Series [7] deals with HCT-116 human colon cancer cells. Conditions: for cell death of HCT-116 cells on chip without liver compartment cells: chips seeded with HCT-116 cells only, no cells in liver compartment, 24 hours. The method, then: FIG. 16 Tegafur dose response. […] The chips were treated with indicated concentrations of tegafur for 24 hours. The first graph (FIG. 16A) is a plot of percentage dead cells vs. tegafur or 5-FU concentration after 24 hours of re-circulation on the chip. The second graph (FIG. 16B) is a similar dose response using a traditional in vitro cell culture assay with HCT 116 cells using a 48 hour exposure. HCT-116 cells were seeded on poly-lysine treated glass coverslips and exposed to either tegafur or 5-FU at the indicated concentrations. After a 48 hr incubation, coverslips were treated as described above and the percentage of cell death was determined.
as §3
[…] Tegafur was added to the re-circulating medium at various concentrations for 24 hours and the cells labeled with Hoechst 33342, a membrane permeable DNA dye, and ethidium homodimer, a membrane impermeable DNA dye (see Methods Section).

A further series relates to HCT-116 cells. Briefly: Traditional in vitro cell culture assay, HCT-116 cells on poly-lysine treated glass coverslips. The conditions noted are these: for cell death of HCT-116 cells, traditional cell culture assay: coverslips, no liver cells, 48 hr exposure. Format: cell-based, human. The protocol: FIG. 16 Tegafur dose response. Chips were seeded with HepG2-C3A cells in the liver compartment and HCT-116 colon cancer cells in the target tissues compartment. The chips were treated with indicated concentrations of tegafur for 24 hours. The first graph (FIG. 16A) is a plot of percentage dead cells vs. tegafur or 5-FU concentration after 24 hours of re-circulation on the chip. The second graph (FIG. 16B) is a similar dose response using a traditional in vitro cell culture assay with HCT 116 cells using a 48 hour exposure. HCT-116 cells were seeded on poly-lysine treated glass coverslips and exposed to either tegafur or 5-FU at the indicated concentrations. After a 48 hr incubation, coverslips were treated as described above and the percentage of cell death was determined.
To measure the cytotoxic effects of tegafur against colon cancer cells, the microscale chip was prepared with HepG2-C3A cells in the liver compartment and HCT-116 human colon cancer cells in the target tissue compartment. Tegafur was added to the re-circulating medium at various concentrations for 24 hours and the cells labeled with Hoechst 33342, a membrane permeable DNA dye, and ethidium homodimer, a membrane impermeable DNA dye (see Methods Section).

“Also recorded” adds a separate entry of the source.

`CN[C@@H]1C[C@H]2O[C@@](C)([C@@H]1OC)n1c3ccccc3c3c4c(c5c6ccccc6n2c5c31)C(=O)NC4` [Staurosporine]: the “apoptosis of HepG2/C3A cells (APOPTAG)” value with HepG2/C3A cells [1] is listed as “caused significant apoptosis”. Moreover, the “apoptosis of HCT116 cells on chip (APOPTAG)” value in the series with HCT116 cells [2] was “significant apoptosis (or cytotoxicity)”. For the same compound, in series [3], the “apoptosis on chip (annexin V-FITC)” value was “caused significant apoptosis”. For the same compound, the “cell death of HepG2/C3A cells (LIVE/DEAD)” value in the series with HepG2/C3A cells [4] is “clearly cause cell death”. The “cell death of HCT116 cells on chip (LIVE/DEAD)” value in the series with HCT116 cells [5] is given as “Significant cell death; also recorded: significant apoptosis (or cytotoxicity)”.

With `CC1=C(CC(=O)O)c2cc(F)ccc2/C1=C\c1ccc([S+](C)[O-])cc1` (centres unmarked) [Sulindac, sulindac sulfoxide], the “efficacy against HT-29 colon cancer cells on chip” value in series [6] is reported as “effective”. For the same compound, the “cell death of HT29 cells in target tissue compartment” value in series [6] (One hundred micromoles, in the absence of the HepG2-C3A liver cells) was “minimal levels of cell death”.

On to `O=c1[nH]cc(F)c(=O)[nH]1` [5-FU, 5-fluorouracil], for which, in series [7], the “cell death of HCT-116 cells on chip without liver compartment cells” value is listed as “caused substantial cell death”. The “exposure before cytotoxicity was observed, traditional cell culture assay” value in the series with HCT-116 cells (HCT-116 cells on coverslips) was no less than 48 h. Also, the “cell death of HCT-116 cells, traditional cell culture assay” value in the series on HCT-116 cells was “triggered cell death”.

Turning to `O=c1[nH]c(=O)n(C2CCCO2)cc1F` (centres unmarked) [Tegafur, 5-fluoro-1-(2-tetrahydrofuryl)-2,4(1H,3H)-pyrimidi-nedione], in series [7], the “cytotoxicity to HCT-116 cells on chip” value is “cytotoxic to HCT-1-16-cells in a dose dependent fashion” and the “cell death of HCT-116 cells on chip without liver compartment cells” value was “did not cause significant cell death”. Further, in series [6], the “efficacy against HT-29 colon cancer cells on chip” value is “ineffective”. Besides, the “cell death of HCT-116 cells, traditional cell culture assay” value in the series with HCT-116 cells is recorded as “ineffective”.

Values taken from patent US9273276B2, “Devices and methods for pharmacokinetic-based cell culture system” (priority 2001, dated 2016).
